Read-outs that look alike come from different tables or passages of the source. Peptide text beside a SMILES is read from it.
Experiments:
[1] = test system: Staphylococcus aureus (S. aureus) ATCC6538; assay type: cell-based
Description: (§1) A broth microdilution assay was performed to determine the minimum inhibitory concentration (MIC) for the oligoarginine peptides. Escherichia coli (E. coli) ATCC25922 and Staphylococcus aureus (S. aureus) ATCC6538 were used as model organisms for Gram-negative and Gram-positive bacteria, respectively. Both strains were cultured in LB broth for ∼18 h overnight at 37 °C and shaking set to 180 RPM. The culture was diluted to obtain a 0.01 optical density (OD) bacterial suspension in LB. Using a 96-well plate, oligoarginine concentrations ranging from 1 mM to 0.001 mM were obtained, and each peptide concentration was tested against both bacterial strains. The bacteria were incubated overnight at 37 °C for 18 h, and the lowest concentration of the treatment with no visible bacterial growth was recorded as the MIC of the respective oligoarginine treatment.

[2] = test system: Escherichia coli (E. coli) ATCC25922; assay type: cell-based
Description: as §1

[3] = LB broth, 1 mM to 0.001 mM, 18 h at 37 °C, no visible growth, average ± SEM, n = 9

S. aureus MIC ([1]; ATCC6538, 18 h) [µM] | E. coli MIC ([2]; ATCC25922, 18 h) [µM] | Compound | S. aureus MIC [1, 3] [µM] | E. coli MIC [2, 3] [µM]
> 1000 | > 1000 | N=C(N)NCCC[C@H](NC(=O)[C@H](CCCNC(=N)N)NC(=O)[C@H](CCCNC(=N)N)NC(=O)[C@H](CCCNC(=N)N)NC(=O)[C@H](CCCNC(=N)N)NC(=O)[C@@H](N)CCCNC(=N)N)C(=O)O [R6] | – | –
> 1000 | > 1000 | N=C(N)NCCC[C@H](NC(=O)[C@H](CCCNC(=N)N)NC(=O)[C@@H](N)CCCNC(=N)N)C(=O)O [R3] (H-Arg-Arg-Arg-OH) | – | –
1000 | > 1000 | N=C(N)NCCC[C@H](NC(=O)[C@H](CCCNC(=N)N)NC(=O)[C@H](CCCNC(=N)N)NC(=O)[C@H](CCCNC(=N)N)NC(=O)[C@H](CCCNC(=N)N)NC(=O)[C@H](CCCNC(=N)N)NC(=O)[C@H](CCCNC(=N)N)NC(=O)[C@H](CCCNC(=N)N)NC(=O)[C@@H](N)CCCNC(=N)N)C(=O)O [R9] | – | –
– | – | N=C(N)NCCC[C@H](NC(=O)[C@H](CCCNC(=N)N)NC(=O)[C@H](CCCNC(=N)N)NC(=O)[C@H](CCCNC(=N)N)NC(=O)[C@H](CCCNC(=N)N)NC(=O)[C@H](CCCNC(=N)N)NC(=O)[C@H](CCCNC(=N)N)NC(=O)[C@H](CCCNC(=N)N)NC(=O)[C@H](CCCNC(=N)N)NC(=O)[C@H](CCCNC(=N)N)NC(=O)[C@H](CCCNC(=N)N)NC(=O)[C@@H](N)CCCNC(=N)N)C(=O)O [R12] | 610 ± 220 | 940 ± 160

Source: PMC11336422, “Oligoarginine peptide structure and its effect on cell penetration in ocular drug delivery” (Heliyon, 2024)
